“Also recorded” adds a separate entry of the source.
Legend:
caspase 8 = experiment: Caspase 8 activity luminescent assay in Fas-activated 661W cells; format: cell-based, mouse
Protocol: Caspase 8 activity was measured by a commercially available luminescent cleavage assay kit (Promega, Madison, Wis.). The 661W cells were seeded in 96-well plates at 2,000 cells/well for 24 hours before treatment. Cells were treated with 500 ng/mL Fas-agonistic Jo2 monoclonal antibody and various concentrations of calpeptin or equal volume of DMSO. Caspase 8 activity was measured at 48 hours by incubating the cells with the proluminescent substrate in 96-well plates according to the manufacturer's instructions. Controls included untreated cells and wells with no cells. Luminescence was measured in a plate reader luminometer (Turner Biosystems, Sunnyvale, Calif.).

calpain 1 = molecular target: T1, calpain 1 (Rattus norvegicus, UniProt P97571); experiment: Experimental retinal detachment, western blot of calpain 1 specific cleaved alpha-spectrin in retina; format: in vivo; settings: 0.2 μg subretinal at time of detachment, 7 days after detachment, vs vehicle (DMSO)
T1 construct: Retinas from experimental eyes with detachment (detached portion of retina only) and control eyes without detachment were dissected from the RPE-choroid, homogenized, and lysed; from tissue; host or cells: rat retina (in vivo retinal detachment model)
T1 sequence (P97571 1-713): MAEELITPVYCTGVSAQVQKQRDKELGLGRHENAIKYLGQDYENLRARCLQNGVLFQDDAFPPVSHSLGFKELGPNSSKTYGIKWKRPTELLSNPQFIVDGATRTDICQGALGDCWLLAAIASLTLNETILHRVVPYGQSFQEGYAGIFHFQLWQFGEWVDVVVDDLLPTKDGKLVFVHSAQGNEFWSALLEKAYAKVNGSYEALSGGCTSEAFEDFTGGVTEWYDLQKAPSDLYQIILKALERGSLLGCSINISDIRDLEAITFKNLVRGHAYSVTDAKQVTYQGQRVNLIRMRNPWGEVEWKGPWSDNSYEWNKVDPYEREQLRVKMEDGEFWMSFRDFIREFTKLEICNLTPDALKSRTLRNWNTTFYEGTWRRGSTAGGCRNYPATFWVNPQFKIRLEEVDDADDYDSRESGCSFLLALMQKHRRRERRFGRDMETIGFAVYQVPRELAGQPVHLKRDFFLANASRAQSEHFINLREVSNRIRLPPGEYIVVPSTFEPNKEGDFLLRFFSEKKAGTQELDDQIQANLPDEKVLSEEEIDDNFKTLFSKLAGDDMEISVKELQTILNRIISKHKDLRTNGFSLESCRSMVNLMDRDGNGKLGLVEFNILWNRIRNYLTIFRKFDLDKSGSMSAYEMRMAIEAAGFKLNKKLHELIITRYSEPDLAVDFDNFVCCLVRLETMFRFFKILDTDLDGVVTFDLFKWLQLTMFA
T1 sequence (Q64537 1-270 partner): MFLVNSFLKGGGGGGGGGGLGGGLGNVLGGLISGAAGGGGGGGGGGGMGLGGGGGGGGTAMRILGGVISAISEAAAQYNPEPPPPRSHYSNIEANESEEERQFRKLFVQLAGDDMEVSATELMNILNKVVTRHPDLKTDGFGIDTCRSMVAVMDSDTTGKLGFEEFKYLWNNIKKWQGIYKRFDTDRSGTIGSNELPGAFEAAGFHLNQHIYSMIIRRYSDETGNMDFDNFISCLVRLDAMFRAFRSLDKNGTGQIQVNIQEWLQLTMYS
Source text: Detachments were created in adult male Brown-Norway rats (300-400 g; Charles River Laboratories, Wilmington, Mass.) as described previously. Briefly, rodents were anesthetized with a 50:50 mix of ketamine/xylazine, and pupils were dilated with topical phenylephrine (2.5%) and tropicamide (1%). A 20-gauge microvitreoretinal blade was used to create a sclerotomy 2 mm posterior to the limbus, carefully avoiding lens damage. A subretinal injector (Glaser, 32-gauge tip; BD Ophthalmic Systems, Franklin Lakes, N.J.) was introduced through the sclerotomy into the vitreous cavity and then through a peripheral retinotomy into the subretinal space. […]
Retinas from experimental eyes with detachment (detached portion of retina only) and control eyes without detachment were dissected from the RPE-choroid, homogenized, and lysed in buffer containing 10 mM HEPES (pH 7.6), 0.5% IgEPal, 42 mM KCl, 1 mM phenylmethylsulfonyl fluoride, 1 mM EDTA, 1 mM EGTA, 1 mM dithiothreitol, 5 mM MgCl2, and one tablet of protease inhibitors per 10 mL buffer (Complete Mini; Roche Diagnostics GmbH, Madison, Wis.). […] The protein concentration of the supernatant was then determined (DC Protein Assay kit; Bio-Rad Laboratories, Hercules, Calif.). The protein samples were separated on SDS-polyacrylamide gels (Tris-HCl Ready Gels; Bio-Rad Laboratories). […]

**Q.** For `CCCC[C@@H](C=O)NC(=O)[C@H](CC(C)C)NC(=O)OCc1ccccc1` [calpeptin], which “caspase 8 activity” value (caspase 8; 661W cells not treated with Fas activating antibody, calpeptin alone) is on record?
**A.** no effect

**Q.** What about the “caspase 8 activity” value (caspase 8; 661W cells, Fas activating antibody 48 hours, 1 μM) of the same molecule?
**A.** little effect

**Q.** And the “caspase 8 activity” value (caspase 8; 661W cells, Fas activating antibody 48 hours, 10 uM)?
**A.** returned caspase 8 activity to baseline levels; also recorded: significantly reduced its activity back to baseline

**Q.** And the “caspase 8 activity” value (caspase 8; 661W cells, Fas activating antibody 48 hours, 25 uM)?
**A.** returned caspase 8 activity to baseline levels; also recorded: significantly reduced its activity back to baseline

**Q.** What about the “cleaved calpain 1 specific alpha-spectrin in retina” value (calpain 1) of the same molecule?
**A.** significantly less; also recorded: less cleaved alpha-spectrin
